Test results from patent US11629171B2, “Beta-hairpin peptidomimetics” (POLYPHOR AG, priority 2017, dated 2023).
In brackets after ≈: the same amount, converted by molar mass. Where a SMILES comes first, the peptide text is derived from it. Bridges are numbered along the chain shown (N, C = ends). Roman numbers before positions name the chains, in order. [ ]: non-standard residue; d: D form. Tle = CC(C)(C)[C@H](N)C(=O)O; NMeV = CN[C@H](C(=O)O)C(C)C; dDab = NCC[C@@H](N)C(=O)O; hSer = N[C@@H](CCO)C(=O)O; Orn = NCCC[C@H](N)C(=O)O; Dab = NCC[C@H](N)C(=O)O; Abu = CC[C@H](N)C(=O)O; Dap = NC[C@H](N)C(=O)O

Columns and labels:
Format in all cases: cell-based
[1] = system: Acinetobacter baumannii 872842; conditions: 872842
Procedure, shortened: (§1)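 Visible-growth endpoint after 18-20 h at 35° C defines the MIC (μg/mL). Setup: CLSI broth microdilution, MH-II cation-adjusted broth with P-80 at 0.002% final, inoculum of approximately 10^6 CFU/mL, two-fold serial peptide dilutions.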

[2] = system: Acinetobacter baumannii DSM 30008; conditions: DSM 30008
Procedure, shortened: as §1

[3] = system: Enterobacter cloacae 848840; conditions: 848840
Procedure, shortened: as §1

Escherichia coli 926415 = conditions: 926415
Procedure, shortened: as §1

[4] = system: Escherichia coli ATCC 25922; conditions: ATCC 25922
Procedure, shortened: as §1

[5] = system: Klebsiella pneumoniae 968733; conditions: 968733
Procedure, shortened: as §1

[6] = system: Klebsiella pneumoniae SSI #3010; conditions: SSI #3010
Procedure, shortened: as §1

[7] = system: Pseudomonas aeruginosa ATCC 27853; conditions: ATCC 27853
Procedure, shortened: as §1

[8] = system: human red blood cells (hRBC); assay: Hemolysis; conditions: red cells of human, 1 h, 200
Procedure, shortened: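 Hemoglobin release from PBS-washed hRBC at 20% (v/v), incubated 1 h at 37° C with peptides at 200 μg/mL, is measured at 540 nm. Values are blank corrected and given as a fraction of Triton X-100 lysis × 100%.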

SMILES	MIC [1] [mg/L]	Acinetobacter baumannii DSM 30008 MIC [2] [mg/L]	MIC [3] [mg/L]	MIC (Escherichia coli 926415) [mg/L]	Escherichia coli ATCC 25922 MIC [4] [mg/L]	MIC [5] [mg/L]	Klebsiella pneumoniae SSI #3010 MIC [6] [mg/L]	Pseudomonas aeruginosa ATCC 27853 MIC [7] [mg/L]	Hemolysis at 200 μg/mL [8] [%]	MIC [2] [mg/L]	MIC [4] [mg/L]	MIC [6] [mg/L]	MIC [7] [mg/L]
CC(=O)N[C@H](C(=O)N[C@H]1CCN(C)C(=O)C[C@@H](C(=O)N[C@@H](CO)C(N)=O)NC(=O)[C@H](C(C)C)NC(=O)[C@H](CO)NC(=O)[C@H](Cc2c[nH]c3ccccc23)NC(=O)CNC(=O)[C@@H](CCN)NC(=O)[C@H](CCC(=O)N[C@@H](CCN)C(=O)N[C@H](C(=O)N[C@@H](CN)C(=O)N[C@H]2CCNC(=O)[C@H]([C@@H](C)O)NC(=O)[C@H](CCN)NC(=O)[C@H](CCN)NC(=O)[C@H](CC(C)C)NC(=O)[C@@H](CC(C)C)NC(=O)[C@H](CCN)NC2=O)[C@@H](C)O)NC(=O)[C@H](CCN)NC(=O)[C@H](Cc2ccc(O)cc2)NC1=O)C(C)C [Ex. 348]	0.5 (≈ 0.21 µM)	0.125	0.5 (≈ 0.21 µM)	0.5 (≈ 0.21 µM)	0.0625	2 (≈ 0.842 µM)	0.0625	0.125	<1	–	–	–	–
CC(=O)N[C@H](C(=O)N[C@H]1CCCNC(=O)[C@@H]([C@H](C)O)NC(=O)[C@H](C(C)C)NC(=O)[C@H](CO)NC(=O)[C@H](Cc2c[nH]c3ccccc23)NC(=O)[C@H](CCN)NC(=O)[C@@H](CCN)NC(=O)[C@H](CCC(=O)N[C@@H](CCN)C(=O)N[C@H](C(=O)N[C@@H](CN)C(=O)N[C@H]2CCNC(=O)[C@H]([C@@H](C)O)NC(=O)[C@H](CCN)NC(=O)[C@H](CCN)NC(=O)[C@H](CC(C)C)NC(=O)[C@@H](CC(C)C)NC(=O)[C@H](CCN)NC2=O)[C@@H](C)O)NC(=O)[C@H](CN)NC(=O)[C@H](Cc2ccc(O)cc2)NC1=O)C(C)C [Ex. 37] (I: Ac-V[Orn]Y[Dap]E[dDab][Dab]WSV[dT] / II: [Dab]T[Dap][Dab][Dab][dL]L[Dab][Dab]T; lactam I:2-I:C, II:4-II:C; amide I:5-II:N)	1 (≈ 0.434 µM)	–	0.25 (≈ 0.108 µM)	0.5 (≈ 0.217 µM)	–	2 (≈ 0.868 µM)	–	–	1	0.125 (≈ 0.0542 µM)	0.25 (≈ 0.108 µM)	0.25 (≈ 0.108 µM)	0.5 (≈ 0.217 µM)
CC[C@@H]1NC(=O)[C@@H](CC(C)C)NC(=O)[C@H](CCN)NC(=O)[C@@H](NC(=O)[C@H](CN)NC(=O)[C@@H](NC(=O)[C@H](CCN)NC(=O)CC[C@@H]2NC(=O)[C@H](CCN)NC(=O)[C@H](Cc3ccc(O)cc3)NC(=O)[C@@H](NC(=O)[C@@H](NC(C)=O)C(C)C)CSSC[C@@H](C(=O)N[C@@H](C)C(=O)N[C@H](CO)C(N)=O)NC(=O)[C@H]([C@@H](C)CC)NC(=O)[C@H](CO)NC(=O)[C@H](Cc3c[nH]c4ccccc34)NC(=O)[C@H](CO)NC(=O)[C@@H](CCN)NC2=O)[C@@H](C)O)CCNC(=O)[C@H]([C@@H](C)O)NC(=O)[C@H](CCN)NC(=O)[C@H](CCN)NC1=O [Ex. 369] (I: Ac-VCY[Dab]E[dDab]SWSICA[dS]-NH2 / II: [Dab]T[Dap][Dab][Dab][dL][Abu][Dab][Dab]T; disulfide I:2-I:11; amide I:5-II:N; lactam II:4-II:C)	0.03125 (≈ 0.0127 µM)	0.007813	0.03125 (≈ 0.0127 µM)	0.0625 (≈ 0.0254 µM)	0.01562	0.0625 (≈ 0.0254 µM)	0.03125	0.0625	<1	–	–	–	–
CC(=O)N[C@H](C(=O)N[C@H]1CSSC[C@@H](C(=O)N[C@@H](CO)C(N)=O)NC(=O)[C@H](C(C)C)NC(=O)[C@H](CCC(=O)O)NC(=O)[C@H](Cc2c[nH]c3ccccc23)NC(=O)[C@H](CCO)NC(=O)[C@@H](CCN)NC(=O)[C@H](CCC(=O)N[C@@H](CCN)C(=O)N[C@H](C(=O)N[C@@H](CN)C(=O)N[C@H]2CCNC(=O)[C@H]([C@@H](C)O)NC(=O)[C@H](CCN)NC(=O)[C@H](CCN)NC(=O)[C@H](CC(C)C)NC(=O)[C@@H](CC(C)C)NC(=O)[C@H](CCN)NC2=O)[C@@H](C)O)NC(=O)[C@H](CCCCN)NC(=O)[C@H](Cc2ccc(O)cc2)NC1=O)C(C)C [Ex. 158] (I: Ac-VCYKE[dDab][hSer]WEVCS-NH2 / II: [Dab]T[Dap][Dab][Dab][dL]L[Dab][Dab]T; disulfide I:2-I:11; amide I:5-II:N; lactam II:4-II:C)	0.25 (≈ 0.101 µM)	–	0.125 (≈ 0.0503 µM)	0.5 (≈ 0.201 µM)	–	1 (≈ 0.403 µM)	–	–	<1	0.0625 (≈ 0.0252 µM)	0.0625 (≈ 0.0252 µM)	0.125 (≈ 0.0503 µM)	0.25 (≈ 0.101 µM)
CN[C@H](C(=O)N[C@H](C(=O)N[C@@H](Cc1ccc(O)cc1)C(=O)N[C@H]1CSSC[C@@H](C(=O)N[C@H](C(=O)N[C@@H](CO)C(N)=O)C(C)C)NC(=O)[C@H](Cc2c[nH]c3ccccc23)NC(=O)[C@H](CCO)NC(=O)[C@@H](CCN)NC(=O)[C@H](CCC(=O)N[C@@H](CCN)C(=O)N[C@H](C(=O)N[C@@H](CCN)C(=O)N[C@H]2CCNC(=O)[C@H]([C@@H](C)O)NC(=O)[C@H](CCN)NC(=O)[C@H](CCN)NC(=O)[C@H](CC(C)C)NC(=O)[C@@H](CC(C)C)NC(=O)[C@H](CCN)NC2=O)[C@@H](C)O)NC1=O)[C@@H](C)O)C(C)C [Ex. 12] (I: H-[NMeV]TYCE[dDab][hSer]WCVS-NH2 / II: [Dab]T[Dab][Dab][Dab][dL]L[Dab][Dab]T; disulfide I:4-I:9; amide I:5-II:N; lactam II:4-II:C)	1 (≈ 0.432 µM)	–	0.5 (≈ 0.216 µM)	1 (≈ 0.432 µM)	–	4 (≈ 1.73 µM)	–	–	2	0.125 (≈ 0.054 µM)	0.0625 (≈ 0.027 µM)	0.25 (≈ 0.108 µM)	0.125 (≈ 0.054 µM)
CC(=O)N[C@H](C(=O)N[C@H]1CCN(C)C(=O)C[C@@H](C(=O)N[C@@H](CO)C(N)=O)NC(=O)[C@H](C(C)C)NC(=O)[C@H](CO)NC(=O)[C@H](Cc2c[nH]c3ccccc23)NC(=O)[C@H](CO)NC(=O)[C@@H](CCN)NC(=O)[C@H](CCC(=O)N[C@@H](CCN)C(=O)N[C@H](C(=O)N[C@@H](CN)C(=O)N[C@H]2CCNC(=O)[C@H]([C@@H](C)O)NC(=O)[C@H](CCN)NC(=O)[C@H](CCN)NC(=O)[C@H](CC(C)C)NC(=O)[C@@H](CC(C)C)NC(=O)[C@H](CCN)NC2=O)[C@@H](C)O)NC(=O)[C@H](CCN)NC(=O)[C@H](Cc2ccc(O)cc2)NC1=O)C(C)C [Ex. 302]	0.5 (≈ 0.208 µM)	0.125	0.5 (≈ 0.208 µM)	2 (≈ 0.831 µM)	0.0625	2 (≈ 0.831 µM)	0.125	0.125	3	–	–	–	–
CC(=O)N[C@H](C(=O)N[C@H]1CCCNC(=O)[C@@H](C(C)C)NC(=O)[C@H](C(C)(C)C)NC(=O)[C@H](CO)NC(=O)[C@H](Cc2c[nH]c3ccccc23)NC(=O)[C@H](CCO)NC(=O)[C@@H](CCN)NC(=O)[C@H](CCC(=O)N[C@@H](CCN)C(=O)N[C@H](C(=O)N[C@@H](CN)C(=O)N[C@H]2CCNC(=O)[C@H]([C@@H](C)O)NC(=O)[C@H](CCN)NC(=O)[C@H](CCN)NC(=O)[C@H](CC(C)C)NC(=O)[C@@H](CC(C)C)NC(=O)[C@H](CCN)NC2=O)[C@@H](C)O)NC(=O)[C@H](CO)NC(=O)[C@H](Cc2ccc(O)cc2)NC1=O)C(C)C [Ex. 27] (I: Ac-V[Orn]YSE[dDab][hSer]WS[Tle][dV] / II: [Dab]T[Dap][Dab][Dab][dL]L[Dab][Dab]T; lactam I:2-I:C, II:4-II:C; amide I:5-II:N)	0.125 (≈ 0.0539 µM)	–	0.25 (≈ 0.108 µM)	1 (≈ 0.431 µM)	–	1 (≈ 0.431 µM)	–	–	<1	0.0625 (≈ 0.027 µM)	0.0625 (≈ 0.027 µM)	0.25 (≈ 0.108 µM)	0.5 (≈ 0.216 µM)
